Laboratory results published in US5945436A, “Pyridylmethyl nitriles, amides and thioamides useful as fungicides” (Uniroyal Chemical Company, Inc., priority 1997, dated 1999).

Key:
Uromyces phaseoli = assay: Bean rust fungus eradicant test (URO PHA); assay type: in vivo; details: Uromyces phaseoli, 216 h, pinto bean, eradicant spray 2 days after inoculation, 1,000 mg/l; read-out: Percent Reduction of Disease, URO PHA
In short: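 Seven-day-old pinto bean plants (Phaseolus vulgaris, primary leaf) were inoculated with 20,000 spores/ml, held 24 h at 99% humidity and 21° C., then sprayed two days post-inoculation with acetone/TWEEN 20 emulsions at 1,000 mg/l. After nine days in a 21° C. greenhouse, disease was scored as percent reduction versus unsprayed controls.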

Septoria nodorum = assay: Fungal growth inhibition, treated disc on agar (SEP NOD); assay type: cell-based; details: Parastagonospora nodorum, disc dipped in 500 mg/l, 29° C., read-out: Percent Growth Inhibition, SEP NOD
Description: Filter paper discs, each 11 mm. in diameter, were dipped in each of the test solutions. The discs were allowed to air dry to drive off the acetone solvent. A number of untreated discs were used as controls.
The treated and untreated discs were then placed on agar plates and one of the following fungus species: Septoria nodorum (SEP NOD), Botrytis cinerea (BOT CIN), Fusarium oxysporum (FUS OXY), Pythium ultimum (PYT ULT), Rhizoctonia solani (RHI SOL), Colletotrichum gossypii (COL GOS), and Scierotinia minor (SCL MIN), was added to the center of each disc in the form of a culture plug with the fungus mat in contact with the paper of the test disc. Cercosporidium personatum (CER PER), was added to discs as a spore suspension (20,000 spores/ml) to the disc (two drops of spore suspension per disc), rather than a mycelial culture plug. The plates were then incubated at 29° C. in an oven.
With the exception of the discs containing Cercosporidium personatum, the discs were evaluated by first measuring the radius from the center of the fungus colony on the treated discs and on the untreated discs. Percent growth inhibition of each of the compounds tested was determined as a function of the difference between the radius of the fungus colony on the treated disc versus the radius of the fungus colony on the untreated disc.

Erysiphe graminis [1] = assay: Powdery mildew in barley, foliar application (ERY GRA); assay type: in vivo; details: Blumeria graminis, foliar, 192 h, foliar, 1,000 mg/l, 8 days after inoculation, read-out: Percent Reduction of Disease, ERY GRA
In short: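 'Robust' barley plants sprayed with acetone/TWEEN 20 aqueous emulsion at 1,000 mg/l, dried, then kept at 21° C in a greenhouse. Inoculated by distributing Erysiphe graminis spores from infected plants. Percent control computed from disease scores vs unsprayed control pots.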

Erysiphe polygoni = assay: Powdery mildew on pinto bean, foliar application (ERY POL); assay type: in vivo; details: Erysiphe polygoni, similar procedure as barley (1,000 mg/l), read-out: Percent Reduction of Disease, ERY POL
In short: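 Pinto bean plants sprayed with compound emulsion (acetone or inert solvent, TWEEN 20, water) at 1,000 mg/l, or left unsprayed, dried, then inoculated with Erysiphe polygoni spores in a 21° C greenhouse. Disease scored; percent control computed against untreated controls.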

Fusarium oxysporum = assay: Fungal growth inhibition, treated disc on agar (FUS OXY); assay type: cell-based; details: Fusarium oxysporum, disc dipped in 500 mg/l, 29° C., read-out: Percent Growth Inhibition, FUS OXY
Erysiphe cichoracearum = assay: Powdery mildew of cucumber, systemic root uptake (CMS); assay type: in vivo; details: 45 ml of 250 mg/l, 8 days after inoculation
In short: (§1)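 Pot soil of barley (BMS) and cucumber (CMS) plants was drenched with 45 ml of a 250 mg/l acetone/Tween 20 aqueous emulsion, with untreated plants as controls. Disease was scored on a rating scale that included intermediate grades.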

Rhizoctonia solani = assay: Fungal growth inhibition, treated disc on agar (RHI SOL); assay type: cell-based; details: Rhizoctonia solani, disc dipped in 500 mg/l, 29° C., read-out: Percent Growth Inhibition, RHI SOL
Erysiphe graminis [2] = assay: Powdery mildew of barley, systemic root uptake (BMS); assay type: in vivo; details: 45 ml of 250 mg/l, 8 days after inoculation
In short: as §1

SMILES	pest or weed control at 1000 µg/mL (Uromyces phaseoli)	inhibition at 500 µg/mL (Septoria nodorum)	pest or weed control at 1000 µg/mL (Erysiphe graminis [1])	pest or weed control at 1000 µg/mL (Erysiphe polygoni)	inhibition at 500 µg/mL (Fusarium oxysporum)	Percent Reduction of Disease, CMS (Erysiphe cichoracearum)	inhibition at 500 µg/mL (Rhizoctonia solani)	Percent Reduction of Disease, BMS (Erysiphe graminis [2])
CC(C)CC(C#N)(CCc1ccc(F)cc1)c1cccnc1 (stereo not shown) [Compound 39]	92%	8%	92%	92%	30%	0%	11%	0%
C=CCC(C#N)(CCc1ccccc1)c1cccnc1 (stereo not shown) [Compound 5]	90%	50%	85%	90%	76%	88%	100%	85%
